According to patent US10670605B2, “Cysteine reactive probes and uses thereof” (The Scripps Research Institute, priority 2015, dated 2020):
Each block holds one compound with its values, some of them ahead of it.

Columns and labels:
CDK5 C157 (Q00535) = CDK5 C157 (Q00535) (Homo sapiens, UniProt Q00535); experiment: Competitive isoTOP-ABPP, cell lysates; assay type: binding; details: for isoTOP-ABPP reactivity ratio, Q00535_C157 / isoTOP-ABPP reactivity profile ratio, Q00535_C157: 500 μm
LRBA C2675 (P50851) = LRBA C2675 (P50851) (Homo sapiens, UniProt P50851); experiment: Competitive isoTOP-ABPP, cell lysates; assay type: binding
LRBA C2675 (P50851), sequence (P50851 whole entry, the tested form may be a part): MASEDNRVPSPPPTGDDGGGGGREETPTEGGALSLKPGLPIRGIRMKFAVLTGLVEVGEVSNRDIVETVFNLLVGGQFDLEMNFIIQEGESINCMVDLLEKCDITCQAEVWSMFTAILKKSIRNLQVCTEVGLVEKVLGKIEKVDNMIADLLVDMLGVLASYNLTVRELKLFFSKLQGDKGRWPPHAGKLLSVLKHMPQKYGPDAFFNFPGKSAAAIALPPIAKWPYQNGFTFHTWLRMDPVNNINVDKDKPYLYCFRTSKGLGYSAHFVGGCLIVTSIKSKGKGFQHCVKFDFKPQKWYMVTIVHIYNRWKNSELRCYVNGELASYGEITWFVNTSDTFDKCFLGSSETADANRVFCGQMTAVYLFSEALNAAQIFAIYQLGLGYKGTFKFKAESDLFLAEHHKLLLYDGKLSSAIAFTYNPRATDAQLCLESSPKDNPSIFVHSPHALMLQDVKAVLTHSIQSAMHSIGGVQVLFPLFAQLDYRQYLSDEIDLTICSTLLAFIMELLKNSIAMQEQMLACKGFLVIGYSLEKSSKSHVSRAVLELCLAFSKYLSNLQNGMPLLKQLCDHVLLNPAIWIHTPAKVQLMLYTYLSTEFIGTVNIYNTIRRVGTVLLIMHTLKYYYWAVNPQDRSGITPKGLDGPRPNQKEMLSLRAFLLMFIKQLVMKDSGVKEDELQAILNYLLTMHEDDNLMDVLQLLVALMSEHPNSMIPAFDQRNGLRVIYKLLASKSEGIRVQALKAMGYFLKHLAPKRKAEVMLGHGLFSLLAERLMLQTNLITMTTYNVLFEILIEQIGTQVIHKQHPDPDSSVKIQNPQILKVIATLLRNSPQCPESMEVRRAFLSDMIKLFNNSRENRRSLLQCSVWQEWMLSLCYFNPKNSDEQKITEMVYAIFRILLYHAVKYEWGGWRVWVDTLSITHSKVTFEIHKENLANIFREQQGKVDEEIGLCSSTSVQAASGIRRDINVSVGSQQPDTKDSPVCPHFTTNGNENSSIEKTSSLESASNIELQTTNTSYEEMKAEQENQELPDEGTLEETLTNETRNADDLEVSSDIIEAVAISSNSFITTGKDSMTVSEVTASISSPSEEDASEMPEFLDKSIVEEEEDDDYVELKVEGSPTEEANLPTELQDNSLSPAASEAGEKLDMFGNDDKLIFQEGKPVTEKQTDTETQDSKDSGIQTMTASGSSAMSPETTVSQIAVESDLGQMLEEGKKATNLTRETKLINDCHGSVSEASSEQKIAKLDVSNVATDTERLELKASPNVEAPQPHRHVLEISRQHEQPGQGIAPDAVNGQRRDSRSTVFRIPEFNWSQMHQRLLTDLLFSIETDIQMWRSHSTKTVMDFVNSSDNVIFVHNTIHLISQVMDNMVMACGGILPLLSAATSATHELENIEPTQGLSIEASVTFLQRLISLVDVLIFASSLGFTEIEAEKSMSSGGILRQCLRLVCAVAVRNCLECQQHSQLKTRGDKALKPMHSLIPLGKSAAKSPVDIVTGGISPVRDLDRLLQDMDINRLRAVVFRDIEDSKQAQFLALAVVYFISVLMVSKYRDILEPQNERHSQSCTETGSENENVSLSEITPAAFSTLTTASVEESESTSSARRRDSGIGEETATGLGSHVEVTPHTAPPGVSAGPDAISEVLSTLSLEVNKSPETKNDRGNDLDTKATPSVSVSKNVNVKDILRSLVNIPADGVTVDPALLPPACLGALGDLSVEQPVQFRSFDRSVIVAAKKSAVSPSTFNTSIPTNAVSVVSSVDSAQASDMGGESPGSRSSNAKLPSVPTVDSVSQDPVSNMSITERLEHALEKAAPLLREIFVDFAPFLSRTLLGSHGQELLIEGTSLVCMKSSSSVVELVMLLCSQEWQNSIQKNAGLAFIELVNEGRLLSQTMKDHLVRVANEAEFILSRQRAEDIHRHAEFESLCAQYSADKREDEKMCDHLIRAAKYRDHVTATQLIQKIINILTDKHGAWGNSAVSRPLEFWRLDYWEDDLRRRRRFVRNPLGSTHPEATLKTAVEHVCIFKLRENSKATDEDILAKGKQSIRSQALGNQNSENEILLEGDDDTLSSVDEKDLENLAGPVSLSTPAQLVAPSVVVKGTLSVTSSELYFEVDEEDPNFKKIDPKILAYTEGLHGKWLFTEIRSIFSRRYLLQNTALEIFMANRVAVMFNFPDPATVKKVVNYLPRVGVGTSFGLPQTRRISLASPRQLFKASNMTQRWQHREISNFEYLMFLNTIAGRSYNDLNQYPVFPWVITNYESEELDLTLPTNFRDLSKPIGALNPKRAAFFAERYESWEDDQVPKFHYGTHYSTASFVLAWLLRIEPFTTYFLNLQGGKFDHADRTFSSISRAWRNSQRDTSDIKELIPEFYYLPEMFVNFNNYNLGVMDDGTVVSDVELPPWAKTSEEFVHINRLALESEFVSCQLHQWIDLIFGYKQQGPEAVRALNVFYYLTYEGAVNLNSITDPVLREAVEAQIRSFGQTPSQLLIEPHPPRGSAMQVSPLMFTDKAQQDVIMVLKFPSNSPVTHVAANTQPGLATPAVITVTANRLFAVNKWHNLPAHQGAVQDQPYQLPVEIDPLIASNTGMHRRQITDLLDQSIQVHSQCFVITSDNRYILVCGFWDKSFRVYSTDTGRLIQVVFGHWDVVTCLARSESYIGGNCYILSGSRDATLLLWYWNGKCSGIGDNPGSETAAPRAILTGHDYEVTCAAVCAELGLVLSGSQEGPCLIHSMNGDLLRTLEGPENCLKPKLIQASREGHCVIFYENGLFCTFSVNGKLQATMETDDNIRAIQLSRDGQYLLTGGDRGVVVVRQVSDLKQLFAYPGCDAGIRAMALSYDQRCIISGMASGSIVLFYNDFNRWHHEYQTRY

[1] = molecular target: T1, cysteines in MDA-MB-231 and Ramos cells (Homo sapiens, UniProt Q96S55); experiment: Competitive isoTOP-ABPP in situ (fragment-treated cells); assay type: cell-based; details: 200 μM, insitu, 231
T1 sequence (Q96S55 1-665): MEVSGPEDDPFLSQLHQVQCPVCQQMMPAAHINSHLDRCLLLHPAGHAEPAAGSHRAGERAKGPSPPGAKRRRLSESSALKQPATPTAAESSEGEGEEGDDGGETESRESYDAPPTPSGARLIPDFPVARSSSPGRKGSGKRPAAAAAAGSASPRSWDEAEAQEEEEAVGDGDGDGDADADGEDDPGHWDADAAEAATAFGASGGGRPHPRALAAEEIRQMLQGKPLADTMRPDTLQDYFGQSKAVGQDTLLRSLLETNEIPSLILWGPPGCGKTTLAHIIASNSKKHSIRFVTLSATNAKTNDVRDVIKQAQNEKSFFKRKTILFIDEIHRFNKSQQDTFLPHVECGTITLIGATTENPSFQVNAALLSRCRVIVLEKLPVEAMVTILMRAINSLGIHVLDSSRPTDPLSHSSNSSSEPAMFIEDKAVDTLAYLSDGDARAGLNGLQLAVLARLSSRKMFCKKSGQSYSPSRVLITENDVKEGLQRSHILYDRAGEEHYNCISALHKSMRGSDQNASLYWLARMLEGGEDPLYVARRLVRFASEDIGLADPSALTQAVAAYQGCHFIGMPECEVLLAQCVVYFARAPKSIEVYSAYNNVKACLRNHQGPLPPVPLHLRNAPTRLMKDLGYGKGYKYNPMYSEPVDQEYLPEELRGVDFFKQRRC

DDX59 C414 (Q5T1V6) = molecular target: T2, DDX59 C414 (Q5T1V6) (Homo sapiens, UniProt Q5T1V6); experiment: Competitive isoTOP-ABPP, cell lysates; assay type: binding
T2 sequence (Q5T1V6 1-619): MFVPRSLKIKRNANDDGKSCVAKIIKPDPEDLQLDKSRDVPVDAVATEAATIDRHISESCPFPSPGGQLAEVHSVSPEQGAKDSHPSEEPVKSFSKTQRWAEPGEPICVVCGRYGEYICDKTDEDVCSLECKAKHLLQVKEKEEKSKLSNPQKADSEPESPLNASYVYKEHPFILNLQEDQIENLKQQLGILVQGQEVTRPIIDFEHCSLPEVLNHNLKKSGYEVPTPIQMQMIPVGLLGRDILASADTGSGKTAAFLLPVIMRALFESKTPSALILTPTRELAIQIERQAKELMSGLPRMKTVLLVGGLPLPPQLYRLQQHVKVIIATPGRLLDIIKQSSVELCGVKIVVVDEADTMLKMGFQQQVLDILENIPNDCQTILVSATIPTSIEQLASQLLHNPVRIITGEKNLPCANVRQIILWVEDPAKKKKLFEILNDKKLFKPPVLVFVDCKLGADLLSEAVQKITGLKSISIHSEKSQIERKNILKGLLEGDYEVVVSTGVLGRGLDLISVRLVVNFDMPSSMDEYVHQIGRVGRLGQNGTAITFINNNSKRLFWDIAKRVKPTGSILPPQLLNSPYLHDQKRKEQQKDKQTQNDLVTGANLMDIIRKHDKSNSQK

RRAGC C377 (Q9HB90) = RRAGC C377 (Q9HB90) (Homo sapiens, UniProt Q9HB90); experiment: Competitive isoTOP-ABPP, cell lysates; assay type: binding; details: for isoTOP-ABPP reactivity ratio, Q9HB90_C377 / isoTOP-ABPP reactivity profile ratio, Q9HB90_C377: 500 μm
EZH2 C503 (Q15910) = EZH2 C503 (Q15910) (Homo sapiens, UniProt Q15910); experiment: Competitive isoTOP-ABPP, cell lysates; assay type: binding; details: for isoTOP-ABPP reactivity profile ratio, Q15910_C503: in-vitro_ramos_231
EZH2 C503 (Q15910), sequence (Q15910 whole entry): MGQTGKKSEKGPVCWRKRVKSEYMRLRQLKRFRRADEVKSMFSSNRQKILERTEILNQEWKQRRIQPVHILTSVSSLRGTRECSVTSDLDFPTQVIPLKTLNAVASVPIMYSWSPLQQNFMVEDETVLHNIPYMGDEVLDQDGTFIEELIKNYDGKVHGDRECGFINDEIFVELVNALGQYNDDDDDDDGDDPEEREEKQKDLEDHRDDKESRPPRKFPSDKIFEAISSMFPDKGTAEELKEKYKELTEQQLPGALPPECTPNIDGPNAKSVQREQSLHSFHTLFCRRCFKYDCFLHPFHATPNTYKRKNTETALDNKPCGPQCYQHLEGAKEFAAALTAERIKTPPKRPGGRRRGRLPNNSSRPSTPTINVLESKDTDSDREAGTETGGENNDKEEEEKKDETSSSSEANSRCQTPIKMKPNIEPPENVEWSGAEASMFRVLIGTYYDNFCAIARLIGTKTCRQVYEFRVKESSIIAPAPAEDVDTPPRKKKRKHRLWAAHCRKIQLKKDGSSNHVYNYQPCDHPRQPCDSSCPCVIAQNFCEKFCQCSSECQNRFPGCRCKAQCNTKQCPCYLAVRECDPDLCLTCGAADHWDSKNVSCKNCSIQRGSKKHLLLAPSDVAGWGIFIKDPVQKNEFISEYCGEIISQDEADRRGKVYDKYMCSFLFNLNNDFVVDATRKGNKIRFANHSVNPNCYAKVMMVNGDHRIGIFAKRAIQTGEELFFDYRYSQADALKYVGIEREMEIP
EZH2 C503 (Q15910), sequence (O75530 whole entry partner): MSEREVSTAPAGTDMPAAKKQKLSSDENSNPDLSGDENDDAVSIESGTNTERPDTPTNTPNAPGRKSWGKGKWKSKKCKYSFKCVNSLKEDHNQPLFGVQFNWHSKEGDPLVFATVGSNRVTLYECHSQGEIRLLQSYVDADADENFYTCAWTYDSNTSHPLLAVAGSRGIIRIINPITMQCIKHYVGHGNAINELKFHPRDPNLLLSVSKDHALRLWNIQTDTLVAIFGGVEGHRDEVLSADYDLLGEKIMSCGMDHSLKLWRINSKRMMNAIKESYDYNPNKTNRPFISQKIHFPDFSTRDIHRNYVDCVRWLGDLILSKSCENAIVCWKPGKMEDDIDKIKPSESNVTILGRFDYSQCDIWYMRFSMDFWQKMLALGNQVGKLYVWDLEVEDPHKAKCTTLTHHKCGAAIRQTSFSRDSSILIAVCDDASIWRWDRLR
EZH2 C503 (Q15910), sequence (Q15022 whole entry partner): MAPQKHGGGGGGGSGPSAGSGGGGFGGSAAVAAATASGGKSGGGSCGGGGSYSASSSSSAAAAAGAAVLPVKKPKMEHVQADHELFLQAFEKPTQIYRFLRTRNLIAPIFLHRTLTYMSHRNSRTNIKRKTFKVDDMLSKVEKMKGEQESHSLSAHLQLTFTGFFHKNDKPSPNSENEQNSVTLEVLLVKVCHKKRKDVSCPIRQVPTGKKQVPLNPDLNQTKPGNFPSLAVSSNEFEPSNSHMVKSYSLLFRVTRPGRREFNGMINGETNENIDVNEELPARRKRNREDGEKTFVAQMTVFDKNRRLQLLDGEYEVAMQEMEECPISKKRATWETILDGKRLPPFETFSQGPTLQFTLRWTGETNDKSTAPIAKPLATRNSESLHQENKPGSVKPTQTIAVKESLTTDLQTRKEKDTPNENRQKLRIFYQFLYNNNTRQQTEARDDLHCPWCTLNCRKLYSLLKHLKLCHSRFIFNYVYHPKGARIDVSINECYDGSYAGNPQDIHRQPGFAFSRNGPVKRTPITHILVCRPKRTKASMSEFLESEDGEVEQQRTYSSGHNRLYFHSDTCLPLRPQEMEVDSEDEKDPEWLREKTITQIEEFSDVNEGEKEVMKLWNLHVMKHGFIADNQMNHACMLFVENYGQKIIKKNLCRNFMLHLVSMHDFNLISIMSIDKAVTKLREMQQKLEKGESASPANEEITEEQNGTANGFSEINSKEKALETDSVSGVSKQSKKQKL

CDK5 C157 (Q00535), sequence (Q00535 whole entry): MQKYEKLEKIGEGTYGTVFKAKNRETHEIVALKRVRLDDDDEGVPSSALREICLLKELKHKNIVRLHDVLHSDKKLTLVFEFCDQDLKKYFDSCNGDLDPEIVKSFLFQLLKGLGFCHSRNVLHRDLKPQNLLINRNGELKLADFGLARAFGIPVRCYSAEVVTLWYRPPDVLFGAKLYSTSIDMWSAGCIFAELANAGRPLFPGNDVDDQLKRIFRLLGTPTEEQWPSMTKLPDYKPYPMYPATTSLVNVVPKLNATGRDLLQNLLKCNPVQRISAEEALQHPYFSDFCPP

Structure (SMILES): CC(C)CCOCCNC(=O)CCl [compound 27]
isoTOP-ABPP ratio Q96S55_C272 [1]: 0.9
isoTOP-ABPP ratio (reactivity profile), Q00535_C157 (CDK5 C157 (Q00535); 500 μm in-vitro ramos): 1.0
isoTOP-ABPP ratio (reactivity profile), Q5T1V6_C414 (DDX59 C414 (Q5T1V6); 500 μm in-vitro ramos): 1.0
isoTOP-ABPP ratio (reactivity profile), Q5T1V6_C414 (DDX59 C414 (Q5T1V6); 500 μm in-vitro ramos_231): 0.8
isoTOP-ABPP ratio (reactivity profile), Q9HB90_C377 (RRAGC C377 (Q9HB90); 500 μm in-vitro ramos_231): 1.0

Structure (SMILES): COc1ccccc1OCCNC(=O)CCl [compound 28]
isoTOP-ABPP ratio Q96S55_C272 [1]: 0.5
isoTOP-ABPP ratio (reactivity profile), Q00535_C157 (CDK5 C157 (Q00535); 500 μm in-vitro ramos): 1.0
isoTOP-ABPP ratio (reactivity profile), Q00535_C157 (CDK5 C157 (Q00535); 500 μm in-vitro ramos_231): 0.9
isoTOP-ABPP ratio (reactivity profile), Q9HB90_C377 (RRAGC C377 (Q9HB90); 500 μm in-vitro ramos_231): 1.3

Structure (SMILES): O=C(CCl)N1CCN(CC(=O)N2CCOCC2)CC1 [compound 29]
isoTOP-ABPP ratio (reactivity profile), Q15910_C503 (EZH2 C503 (Q15910); 500 μm in-vitro ramos_231): 1.4
isoTOP-ABPP ratio (reactivity profile), P50851_C2675 (LRBA C2675 (P50851); 500 μm in-vitro ramos_231): 1.1
isoTOP-ABPP ratio (reactivity profile), Q9HB90_C377 (RRAGC C377 (Q9HB90); 500 μm in-vitro ramos_231): 1.3

Structure (SMILES): CC(C)(C)c1cc(NC(=O)CCl)on1 [compound 32]
isoTOP-ABPP reactivity ratio, Q00535_C157 (CDK5 C157 (Q00535); in-vitro_ramos): 1.7
isoTOP-ABPP reactivity ratio, Q00535_C157 (CDK5 C157 (Q00535); in-vitro_ramos_231): 1.7
isoTOP-ABPP reactivity ratio, Q15910_C503 (EZH2 C503 (Q15910); 500 μm, in-vitro_ramos): 1.7
isoTOP-ABPP reactivity ratio, P50851_C2675 (LRBA C2675 (P50851); 500 μm, in-vitro_ramos): 1.1
isoTOP-ABPP reactivity ratio, P50851_C2675 (LRBA C2675 (P50851); 500 μm, in-vitro_ramos_231): 1.8
isoTOP-ABPP reactivity ratio, Q9HB90_C377 (RRAGC C377 (Q9HB90); in-vitro_ramos): 1.5

Structure (SMILES): O=C(CCl)N(Cc1ccc(F)cc1)C12CC3CC(CC(C3)C1)C2 [compound 34]
isoTOP-ABPP reactivity ratio, Q00535_C157 (CDK5 C157 (Q00535); in-vitro_ramos_231): 0.7
isoTOP-ABPP reactivity ratio, Q5T1V6_C414 (DDX59 C414 (Q5T1V6); 500 μm, in-vitro_ramos_231): 0.6
isoTOP-ABPP reactivity ratio, P50851_C2675 (LRBA C2675 (P50851); 500 μm, in-vitro_ramos): 1.1

Structure (SMILES): O=C(CCl)Nc1ccccc1C1CCCCCC1 [compound 35]
isoTOP-ABPP reactivity ratio, Q5T1V6_C414 (DDX59 C414 (Q5T1V6); 500 μm, in-vitro_ramos): 1.3
isoTOP-ABPP reactivity ratio, P50851_C2675 (LRBA C2675 (P50851); 500 μm, in-vitro_ramos): 1.0

Structure (SMILES): C=CC(=O)N1CCC(c2noc3ccc(F)cc23)CC1 [compound 37]
isoTOP-ABPP reactivity ratio, Q5T1V6_C414 (DDX59 C414 (Q5T1V6); 500 μm, in-vitro_ramos): 1.0
isoTOP-ABPP reactivity ratio, P50851_C2675 (LRBA C2675 (P50851); 500 μm, in-vitro_ramos): 1.0

Structure (SMILES): C=CC(=O)Nc1cc(F)c(N2CCN(C(=O)OC(C)(C)C)CC2)c(F)c1 [compound 38]
isoTOP-ABPP ratio Q96S55_C272 [1]: 1.3
isoTOP-ABPP reactivity ratio, Q00535_C157 (CDK5 C157 (Q00535); in-vitro_ramos_231): 0.9
isoTOP-ABPP reactivity ratio, Q5T1V6_C414 (DDX59 C414 (Q5T1V6); 500 μm, in-vitro_ramos): 1.8
isoTOP-ABPP reactivity ratio, Q5T1V6_C414 (DDX59 C414 (Q5T1V6); 500 μm, in-vitro_ramos_231): 0.9
isoTOP-ABPP reactivity ratio, Q9HB90_C377 (RRAGC C377 (Q9HB90); in-vitro_ramos_231): 1.0

Structure (SMILES): Cc1ccc(C=C(C#N)C(=O)NCCN2CCOCC2)cc1 [compound 41]
isoTOP-ABPP ratio Q96S55_C272 [1]: 0.8
isoTOP-ABPP reactivity ratio, Q00535_C157 (CDK5 C157 (Q00535); in-vitro_ramos_231): 1.5
isoTOP-ABPP reactivity ratio, Q5T1V6_C414 (DDX59 C414 (Q5T1V6); 500 μm, in-vitro_ramos): 1.0
isoTOP-ABPP reactivity ratio, Q5T1V6_C414 (DDX59 C414 (Q5T1V6); 500 μm, in-vitro_ramos_231): 1.2
isoTOP-ABPP reactivity ratio, P50851_C2675 (LRBA C2675 (P50851); 500 μm, in-vitro_ramos_231): 1.9
isoTOP-ABPP reactivity ratio, Q9HB90_C377 (RRAGC C377 (Q9HB90); in-vitro_ramos_231): 1.1

Structure (SMILES): COc1cc(NC(=O)CCl)cc(OC)c1 [compound 43]
isoTOP-ABPP reactivity profile ratio, Q00535_C157 (CDK5 C157 (Q00535); in-vitro_ramos): 1.2
isoTOP-ABPP reactivity profile ratio, Q15910_C503 (EZH2 C503 (Q15910); 500 μm): 20.0

Structure (SMILES): CC1CCc2ccccc2N1C(=O)CCl (centres unmarked) [compound 45]
isoTOP-ABPP ratio Q96S55_C272 [1]: 2.5

Structure (SMILES): O=C(CCl)Nc1cccc2ncccc12 [compound 51]
isoTOP-ABPP ratio Q96S55_C272 [1]: 0.9
isoTOP-ABPP reactivity profile ratio, Q00535_C157 (CDK5 C157 (Q00535); in-vitro_ramos): 1.0
isoTOP-ABPP reactivity profile ratio, P50851_C2675 (LRBA C2675 (P50851); 500 μm, in-vitro_ramos): 0.9
isoTOP-ABPP reactivity profile ratio, Q9HB90_C377 (RRAGC C377 (Q9HB90); in-vitro_ramos_231): 0.6

Other lines, results leading:

isoTOP-ABPP ratio (reactivity profile), Q00535_C157 (CDK5 C157 (Q00535); 500 μm in-vitro ramos): 0.9
isoTOP-ABPP ratio (reactivity profile), P50851_C2675 (LRBA C2675 (P50851); 500 μm in-vitro ramos): 0.9
Structure (SMILES): O=C(/C=C/c1ccccc1)Nc1cc(C(F)(F)F)cc(C(F)(F)F)c1 [compound 26]

isoTOP-ABPP reactivity ratio, Q5T1V6_C414 (DDX59 C414 (Q5T1V6); 500 μm, in-vitro_ramos): 2.0
isoTOP-ABPP ratio (reactivity profile), P50851_C2675 (LRBA C2675 (P50851); 500 μm in-vitro ramos): 0.9
isoTOP-ABPP ratio (reactivity profile), Q9HB90_C377 (RRAGC C377 (Q9HB90); 500 μm in-vitro ramos): 1.4
Structure (SMILES): CCN(CC)c1ccc(S(N)(=O)=O)cc1NC(=O)CCl [compound 30]

isoTOP-ABPP reactivity ratio, Q00535_C157 (CDK5 C157 (Q00535); in-vitro_ramos): 1.1
isoTOP-ABPP reactivity ratio, Q9HB90_C377 (RRAGC C377 (Q9HB90); in-vitro_ramos_231): 2.2
Structure (SMILES): C=CC(=O)N(Cc1cccnc1)c1cc(C(F)(F)F)cc(C(F)(F)F)c1 [compound 31]

isoTOP-ABPP reactivity ratio, Q5T1V6_C414 (DDX59 C414 (Q5T1V6); 500 μm, in-vitro_ramos): 1.4
Structure (SMILES): C=CC(=O)Nc1cc(C)c(Br)cc1C [compound 40]

isoTOP-ABPP reactivity profile ratio, Q15910_C503 (EZH2 C503 (Q15910); 500 μm): 0.9
Structure (SMILES): O=C(CCl)Nc1ccc(-c2ccccc2)cc1 [compound 52]

isoTOP-ABPP reactivity profile ratio, Q00535_C157 (CDK5 C157 (Q00535); in-vitro_ramos): 0.8
isoTOP-ABPP reactivity profile ratio, Q00535_C157 (CDK5 C157 (Q00535); in-vitro_ramos_231): 1.2
isoTOP-ABPP reactivity profile ratio, Q5T1V6_C414 (DDX59 C414 (Q5T1V6); 500 μm, in-vitro_ramos_231): 0.8
isoTOP-ABPP reactivity profile ratio, Q9HB90_C377 (RRAGC C377 (Q9HB90); in-vitro_ramos): 1.1
Structure (SMILES): C=CC(=O)N1CCC(Cc2ccccc2)CC1 [compound 53]
